Where two headings read alike, the source gives them in different places.
Assays:
[1] = tested on: CD4 co-receptor; settings: With-A
Description: The Analysis was performed by flow cytometry, using fluorescence intensity histograms, which allowed us to identify three regions: expression negative, low and high.

[2] = tested on: newborn rat thymocytes; settings: With A
[3] = tested on: human lymphocytes
[4] = tested on: stress model induced in mice; settings: for Corticosterone / IL-1: Table 22
[5] = tested on: thymocytes
Description: For that, we made organ culture in agarose gels and a filter with pores of 5 micron to prevent migration of the thymocytes. The Apoptosis was quantified with 7AAD and it was evaluated by flow cytometry.

[6] = STRESS + IMMP, 10 ng/dose i.p., Table 21

Substance: Peptide LEDGPKFL + Zinc [IMMP]
- Expression Intensity of CD4, Fluorescence, Low ([1]; [IMMP] 10^−8 M): 71.0 ± 6.4 arbitrary fluorescence intensity units
- Expression Intensity of CD4, Fluorescence, Negative ([1]; [IMMP] 10^−8 M): 4.7 ± 0.3 arbitrary fluorescence intensity units
- Expression Intensity of CD4, Fluorescence, High ([1]; [IMMP] 10^−9 M): 196.1 ± 5.4 arbitrary fluorescence intensity units
- Expression Intensity of CD4, Fluorescence, Low ([1]; [IMMP] 10^−9 M): 69.5 ± 5.0 arbitrary fluorescence intensity units
- Expression Intensity of CD4, Fluorescence, Negative ([1]; [IMMP] 10^−9 M): 4.5 ± 0.1 arbitrary fluorescence intensity units
- Expression Intensity of CD4, Fluorescence, High ([1]; [IMMP] 10^−10 M): 194.1 ± 10.0 arbitrary fluorescence intensity units
- Expression Intensity of CD4, Fluorescence, Low ([1]; [IMMP] 10^−10 M): 69.6 ± 5.2 arbitrary fluorescence intensity units
- Expression Intensity of CD4, Fluorescence, Negative ([1]; [IMMP] 10^−10 M): 5.0 ± 0.4 arbitrary fluorescence intensity units
- Expression Intensity of CD4, Fluorescence, High ([1]; [IMMP] 10^−11 M): 196.1 ± 5.4 arbitrary fluorescence intensity units
- Expression Intensity of CD4, Fluorescence, Low ([1]; [IMMP] 10^−11 M): 69.5 ± 7.0 arbitrary fluorescence intensity units
- Expression Intensity of CD4, Fluorescence, Negative ([1]; [IMMP] 10^−11 M): 4.5 ± 0.1 arbitrary fluorescence intensity units
- Expression Intensity of CD4, Fluorescence, High ([1]; [IMMP] 10^−12 M): 194.1 ± 7.3 arbitrary fluorescence intensity units
- Expression Intensity of CD4, Fluorescence, Low ([1]; [IMMP] 10^−12 M): 69.6 ± 7.2 arbitrary fluorescence intensity units
- Expression Intensity of CD4, Fluorescence, Negative ([1]; [IMMP] 10^−12 M): 5.0 ± 0.4 arbitrary fluorescence intensity units
- Cells Percent CD4 ([2]; [M] 10^−6): 15.1 ± 2.5%
- Cells Percent CD8 ([2]; [M] 10^−6): 5.3 ± 1.5%
- Cells Percent DN ([2]; [M] 10^−6): 6.6 ± 1.7%
- Cells Percent DP ([2]; [M] 10^−6): 72.2 ± 1.5%
- Cells Percent CD4 ([2]; [M] 10^−7): 14.2 ± 3.7%
- Cells Percent CD8 ([2]; [M] 10^−7): 6.0 ± 2.2 %
- Cells Percent DN ([2]; [M] 10^−7): 3.7 ± 0.2%
- Cells Percent DP ([2]; [M] 10^−7): 73.3 ± 2.6%
- Cells Percent CD4 ([2]; [M] 10^−8): 13.9 ± 2.6 %
- Cells Percent CD8 ([2]; [M] 10^−8): 6.1 ± 0.2 %
- Cells Percent DN ([2]; [M] 10^−8): 7.1 ± 2.8%
- Cells Percent DP ([2]; [M] 10^−8): 74.8 ± 0.7 %
- Cells Percent CD4 ([2]; [M] 10^−9): 17.7 ± 1.9 %
- Cells Percent CD8 ([2]; [M] 10^−9): 4.8 ± 1.9%
- Cells Percent DN ([2]; [M] 10^−9): 7.0 ± 1.1 %
- Cells Percent DP ([2]; [M] 10^−9): 70.5 ± 1.2 %
- Cells Percent CD4 ([2]; [M] 10^−10): 16.7 ± 1.0 %
- Cells Percent CD8 ([2]; [M] 10^−10): 4.7 ± 2.2%
- Cells Percent DN ([2]; [M] 10^−10): 5.1 ± 1.9%
- Cells Percent DP ([2]; [M] 10^−10): 73.3 ± 3.0%
- Cells Percent CD4 ([2]; [M] 10^−11): 15.4 ± 0.8 %
- Cells Percent CD8 ([2]; [M] 10^−11): 6.0 ± 1.7%
- Cells Percent DN ([2]; [M] 10^−11): 5.1 ± 2.0%
- Cells Percent DP ([2]; [M] 10^−11): 74.8 ± 5.4%
- Cells Percent CD4 ([2]; [M] 10^−12): 16.7 ± 0.9 %
- Cells Percent CD8 ([2]; [M] 10^−12): 6.0 ± 0.5 %
- Cells Percent DN ([2]; [M] 10^−12): 6.4 ± 0.4%
- Cells Percent DP ([2]; [M] 10^−12): 71.8 ± 3.5 %
- Concentrations that increased the proliferative response [3]: 10-10 M
- Corticosterone ([4]; IMMP alone): 33.5 ± 2.1 ng/dL
- IL-1 ([4]; IMMP alone): 6.9 ± 0.8 ng/dL
- WEIGHT ([4]; IMMP alone, Table 22 (title: C57BL/6J mice with lymphoma LR.4)): 13.8 ± 1.2 g
- IL-1 serum level [4, 6]: 6.9 ± 0.8 ng/dL
- WEIGHT [4, 6]: 13.8 ± 1.2 g
- corticosterone serum level [4, 6]: 33.5 ± 2.1 ng/dL
- Corticosterone ([4]; STRESS + IMMP): 43.1 ± 3.8 ng/dL
- IL-1 ([4]; STRESS + IMMP): 18.1 ± 2.0 ng/dL
- WEIGHT ([4]; STRESS + IMMP, Table 22 (title: C57BL/6J mice with lymphoma LR.4)): 13.1 ± 0.9 g
- Body weight loss ([4]; stress + IMMP (36% without)): 11%
- Increase in corticosteroid production induced by stress ([4]; stress + IMMP (70% without)): 38%
- Increase of plasma IL-1 over control ([4]; stress + IMMP (three times without)): increased only once
- Thymocytes in apoptosis (%) ([5]; [IMMP] 10^−8): 1.6 ± 0.8 %
- Thymocytes in apoptosis (%) ([5]; [IMMP] 10^−9): 1.7 ± 0.7 %
- Thymocytes in apoptosis (%) ([5]; [IMMP] 10^−10): 1.5 ± 0.09 %
- Thymocytes in apoptosis (%) ([5]; [IMMP] 10^−11): 2.5 ± 0.91%
